Assay [1] deals with facial artery of LDL receptor null mice. Kind of assay: Facial artery ring vasoreactivity, acetylcholine relaxation after oral treatment. The class given is in vivo. As to conditions: Western diet, 1 mg/mL in drinking water, six weeks.
The subject of assay [2] is apoe null mice. As to conditions: oral DMPC; cited from earlier work.
The test system of assay [3] is mouse facial artery. As to conditions: published studies; cited from earlier work.
Assay [4] has as its system brain arterioles of LDL receptor null mice. Kind of assay: Brain arteriolar wall thickness and lumen diameter by morphometry on H&E sections. It counts as in vivo. As to conditions: Western diet 6 weeks, 300 μg/mL in drinking water, D-4F vs scrambled D-4F. The method, then:
Female wild-type and LDL receptor null C57BL/6 mice were from Jackson Laboratories (Bar Harbour, Me.). The mice were maintained on a chow diet (Ralston Purina) prior to administration of a Western diet (Teklad/Harlan, Madison Wis., diet No. 88137; 42% fat, 0.15% cholesterol, w/w). For studies of brain arterioles the mice were anesthetized with intramuscular ketamine (100 mg/kg) and acepromazine (2.5 mg/kg) and the heart was perfused via the left ventricle with 25 mL phosphate buffered saline (PBS) containing heparin (10 U/mL) followed by 100 mL of 4% paraformaldehyde (PFA) in PBS at pH 7.4 as described by Fernagut et al. (Fernagut et al. (2002) Neuroscience, 114: 1005-1017; Fernagut et al. (2004) Exp Neurol., 185: 47-62). Brains were quickly removed and stored for 24 hrs in 4% PFA at 4° C. and then transferred to 10% sucrose in PBS (pH 7.4) and left until they sank to the bottom of the solution. The right half of the brains were embedded in OCT (Tissue-Tek; Miles Laboratories Ltd, Elkhart Ind.) and frozen in isopentane at −40° C. and stored at −80° C. until sectioned in a cryostat at −20° C. The frozen brain was cut into 8 μm sections coronally to include the underlying white matter and stained with hematoxylin-eosin (H&E) and for smooth muscle α-actin (Serotec, Raleigh, N.C.). […]
(§1) Morphometry was performed to determine vascular wall thickness for all arterioles that were distended and perpendicularly cross-sectioned. […] A minimum of 10 arteries from each diameter group was examined in the cortical area and the deep white matter regions from each brain, and the wall thickness and wall to lumen ratios determined. The ratio of immunoreactive media thickness to the internal diameter of each vessel was assessed in sections immunostained for smooth muscle α-actin. […] Inter-observer variation was determined by having the three investigators measure the same 20 arterioles for wall thickness and lumen diameter and calculate the wall to lumen ratio. […]

The test system of assay [5] is brain arteriolar smooth muscle α-actin. Kind of assay: Brain arteriolar smooth muscle α-actin immunostaining, wall to lumen ratio. It counts as in vivo. As to conditions: LDL receptor null mice, Western diet 6 weeks, 300 μg/mL in drinking water; D-4F vs scrambled D-4F. The method, then:
Female wild-type and LDL receptor null C57BL/6 mice were from Jackson Laboratories (Bar Harbour, Me.). The mice were maintained on a chow diet (Ralston Purina) prior to administration of a Western diet (Teklad/Harlan, Madison Wis., diet No. 88137; 42% fat, 0.15% cholesterol, w/w). For studies of brain arterioles the mice were anesthetized with intramuscular ketamine (100 mg/kg) and acepromazine (2.5 mg/kg) and the heart was perfused via the left ventricle with 25 mL phosphate buffered saline (PBS) containing heparin (10 U/mL) followed by 100 mL of 4% paraformaldehyde (PFA) in PBS at pH 7.4 as described by Fernagut et al. (Fernagut et al. (2002) Neuroscience, 114: 1005-1017; Fernagut et al. (2004) Exp Neurol., 185: 47-62). […]
as §1

The test system of assay [6] is LDL receptor null mice. The assay can be described thus: T-maze continuous alternation task (T-CAT), spatial memory. The class given is in vivo. The method, then:
T-maze continuous alternation task (T-CAT) testing took place daily between 9 A.M. and 4 P.M. and was performed by one investigator unaware of the treatment groups. The mice were delivered to the testing room two hours prior to behavioral studies to allow familiarization with the extra-maze visual cues of the room. The T-maze apparatus used in our studies is identical to the one described by Gerlai et al. (Gerlai (1998) Behavioural Brain Research, 95: 91-101) and was made of transparent acrylic walls with a black acrylic bottom. The dimensions of start and goal arms were: length 75 cm, width 12 cm and height 20 cm. The maze was equipped with three removable guillotine doors that could be operated by manual remote control. The testing room was illuminated by ceiling and floor lights and a fan provided a constant background noise. The T-maze was separated from the investigator by a black curtain and the movement of the mice in the maze was observed on a TV monitor and videotaped. After each individual mouse the T-maze was carefully cleaned with Windex spray and dried with paper towels. The T-maze continuous alternation task (T-CAT) limits the handling of mice and permits their exploratory behavior to be carried out undisturbed. The procedure used in this study is identical to that described by Gerlai et al. (Id.) and consisted of one forced and 14 free choice trials. Consecutive choices made by the mice were measured and the alternation rate during the 14 free choice trials was calculated (0%-no alternation, 100%-alternation at each trial, 50%-random choice). The time (in seconds) needed to complete the 15 trials was recorded and analyzed. The T-CAT testing was continuously registered by a video tracking system (SD Instruments Inc., San Diego, Calif.) and stored on a computer. Statistics were performed using StatView software (SAS Institute, Cary, N.C.)

Assay [7] is described as follows: Plasma lipoprotein and lipid levels. The class given is in vivo, mice. The method, then:
Plasma lipoprotein and lipid levels were determined as described previously (Navab et al. (2004) Circulation, 109:r120-r125; Navab et al. (2005) Arterioscler Thromb Vasc Biol., 25: 1-7).

Assay [8] concerns LDL lipid hydroperoxides. To be noted: mice, oral D-4F, without changing plasma lipid levels; cited from earlier work.
Where [9] appears, read: LDL receptor null mice, Western diet 6 weeks, 300 μg/mL in drinking water, Mean±SEM.

“Also recorded” adds a separate entry of the source. Non-standard residues stand in square brackets, D forms with d.

With `CCCCCCCCCCCCCC(=O)OCC(COP(=O)([O-])OCC[N+](C)(C)C)OC(=O)CCCCCCCCCCCCC` (racemic) [DMPC, 1,2-ditetradecanoyl-rac-glycerol-3-phosphocholine], in assay [1], the “acetylcholine vasorelaxation of facial artery rings” value is recorded as “significant improvement; also recorded: improves”. Moreover, in assay [2], the HDL-cholesterol result is recorded as “increase”; the atherosclerosis result is “prevention and regression”; the “plasma apoA-I levels” value was “increase”.
With “Ac-D-W-F-K-A-F-Y-D-K-V-A-E-K-F-K-E-A-F-NH2 [4F] (Ac-DWFKAFYDKVAEKFKEAF-NH2) [Peptide 4F]”, the “vasoreactivity of facial arteries” value in assay [3] is “dramatically improved”.
Regarding “Ac-D-W-F-K-A-F-Y-D-K-V-A-E-K-F-K-E-A-F-NH2 [D-4F] (Ac-[dD][dW][dF][dK][dA][dF][dY][dD][dK][dV][dA][dE][dK][dF][dK][dE][dA][dF]-NH2) [Peptide D-4F, apoA-I mimetic peptide]”, in assay [4], the “brain arteriolar wall thickness” value was “decreased; also recorded: reduced”, the “lumen diameters of the brain arterioles” value is “no difference” and the “ratio of wall to lumen diameter” value is “significantly less”. The “brain arteriolar wall smooth muscle α-actin content” value in assay [5] is given as “significantly reduced”. Further, the “performance in the T-maze / T-CAT (spatial memory)” value in assay [6] (LDL receptor null mice, Western diet, oral treatment) is recorded as “significantly improved”. For the same compound, in assay [6] (LDL receptor null mice, Western diet, oral treatment, difference not statistically significant), the “time to complete the 15 trials” value came to 548 ± 37 s. Moreover, the “performance in the T-maze / T-CAT (spatial memory)” value in assay [6] (LDL receptor null mice, Western diet, oral treatment, listed as D4F) was “improvement”. For the same compound, the “number of spontaneous alternations in the T-maze test” value in assay [6] (LDLR−/− mice, Western diet six weeks, 300 μg/mL in drinking water) is “significantly improved”. The “difference in plasma total cholesterol, LDL-cholesterol, HDL-cholesterol or triglycerides” value in assay [7] (D-4F compared to scrambled D-4F) is “no significant difference”. Moreover, in assay [7] (setting [9]), the HDL cholesterol concentration stood at 86 ± 6 mg/dL, the LDL cholesterol concentration is 924 ± 76 mg/dL, the Triglycerides worked out at 330 ± 25 mg/dL and the “plasma total cholesterol concentration” value is 1,076±75 mg/dL. The “vasoreactivity of facial arteries” value in assay [3] is reported as “improved”. Further, in assay [8], the LDL lipid hydroperoxides result was “decrease”.

Values taken from patent US8236754B2, “Methods for improving the structure and function of arterioles” (The Regents of the University of California, priority 2004, dated 2012).
